Laboratory results: patent publication US20220233662A1, “NOVEL PEPTIDE” (University College Cardiff Consultants Ltd., priority 2020, published 2022)

Tests used:
Type in all cases: cell-based, human
[1] = system: CD8+ T-cells from HLA A2+ healthy donors; assay: Priming of CD8+ T-cells from HLA A2+ healthy donors with WT and APL peptides, tetramer staining; settings: HLA A2+ healthy donors (n=3), compared to priming with WT peptides
Method: The peptides are sequence […] to the wild-type peptide and termed altered peptide ligands. […] (FIG. 9B) To test the APLs for super-agonist properties each of the WT and APL peptides were used to prime CD8+ T-cells from HLA A2+ healthy donors. The magnitude of the response to each of the peptides was assessed by staining the T-cells with tetramers for HLA A2-[…]
To generate T-cell peptide lines, CD8 T-cells were purified from the PBMCs of HLA A2+ donors using CD8 microbeads according to the manufacturer's instructions (Miltenyi Biotech, Bergisch Gladbach, Germany). Purified CD8 cells (3×10^6) were co-incubated with autologous CD8neg cells (6-8×10^6) in 24 well plates in 2 mL of T-cell media, but with no IL-15. 25 μM of each peptide was used. The cultures had 50% of the media changed thrice weekly. Tetramer staining was performed as above, using 500,000 cells per tube. […] 50,000 T-cells and 15,000 cancer cells were used per well. Incubation was performed for 48 h, and the assay developed according to the manufacturer's instructions (Mabtech, Nacka Strand, Sweden).
(§1) CPL assay of CR24 was performed as described above. Candidate peptide agonists were designed using the CR24 CPL and an online algorithm (http://wsbc.warwick.ac.uk/wsbcToolsWebpage/user_cases.php). Priming of CD8 T-cells from healthy donors, tetramer staining, and chromium release cytotoxicity assays were performed as described above.

[2] = system: autologous melanoma cells; assay: Chromium release cytotoxicity assay of peptide-primed T-cell lines with autologous melanoma; settings: compared to WT Melan A peptide primed T-cells
Method: as §1

[3] = system: CD8 T-cells from RCC, CLL and AML patients; assay: Priming of CD8 T-cells from RCC, CLL and AML patients for 28 days, TAPI-0 assay or tetramer staining
Description: (§2) (FIG. 14A) CD8 T-cells from a renal cell carcinoma (RCC) and chronic lymphocytic leukaemia (CLL) patient were left unprimed or primed with […] peptide for 28 days.

[4] = system: autologous cancer cells (RCC, CLL); assay: Killing assay of peptide-primed CD8 T-cells with autologous cancer cells
Description: as §2

T-cell clone CR24 [5] = assay: Activation assay of clone CR24 with exogenous peptide (peptide titration, MIP-1β ELISA)
T-cell clone CR24 [6] = assay: HLA A2 tetramer staining of CR24

Sequence	priming of Melan A, BST2 and IMP2 tetramer-positive T-cells [1]	priming of Melan A, BST2 and IMP2 tetramer-positive T-cells ([1]; listed as MTSAIGVLVP)	lysis of autologous melanoma cells by peptide-primed T-cells [2]	proportion of IMP-2 specific T-cells (IMP-2 tetramer) ([3]; AML patient and two CLL patients, primed 28 days, compared to unprimed)	MTSAIGILPV specific T-cells after priming ([3]; RCC patient (TAPI-0 assay), CLL patient (tetramer), primed 28 days)	priming of T-cells in RCC, CLL and AML patients ([3]; renal cell carcinoma, chronic lymphocytic leukaemia and acute myeloid leukaemia patients)	killing of CLL cells by primed T-cells ([4]; CLL patient 3, compared to IMP-2 primed CD8s)	killing of autologous cancer cells by primed CD8s ([4]; RCC and CLL patient, compared to unprimed T-cells)	recognition by CR24 as exogenous peptide (T-cell clone CR24 [5])	CR24 response to individual peptide (T-cell clone CR24 [5]; peptide at 10^-6 M)	CR24 response to individual peptide (T-cell clone CR24 [5]; peptide at 10^-8 M)	staining of CR24 with HLA A2 tetramer containing the peptide (T-cell clone CR24 [6])
MTSAIGILPV (listed as Homo sapiens) [APL 5, altered peptide ligand, super-agonist peptide for multi-pronged T-cells]	most effective super-agonist	most effective of the candidate super-agonists	superior lysis	induced a greater proportion	presence	superior at priming	killed more CLL cells	killed more autologous cancer cells				
ITSAIGILPV (listed as Homo sapiens) [APL 2, altered peptide ligand, candidate super-agonist designed from CR24 CPL data]	exhibiting effect across each donor											
LLLGIGILVL (listed as Homo sapiens) [wild-type peptide from BST2 (residues 22-31)]									recognised	responded	responses dropped	stained
NLSALGIFST (listed as Homo sapiens) [wild-type peptide from IMP2 (residues 367-376)]									recognised	responded	responses dropped	stained
